Data reported in patent publication US4567201A, “Diphenoxypropane derivatives and compositions of antiasthmatic and antiinflammatory agents thereof” (Takeda Chemical Industries, Ltd., priority 1981, dated 1986).
Read-outs that look alike come from different tables or passages of the source.

Legend:
[1] = system: leukotriene D4 (LTD4)-induced contraction of the guinea pig ileum; test: Anti-SRS-A activity: inhibition of LTD4-induced contraction of guinea pig ileum; settings: 50% inhibition of LTD4-induced contraction (60-70% of maximum contraction), drug added 1 minute before LTD4
Description: The present inventors studied the antagonistic action of compound (I)-A against SRS-A using a synthetic LTD4 in the following manner.
The inhibitory effect of the drug on the contractile response (60-70% of maximum contraction) of the ileum of guinea pig (body weight 300-350 g, female and male) to leukotriene D4 (LTD4) was investigated. In Tyrode solution containing atropine (10^-7 M) and mepyramine (10^-6 M), 3×10^-10 or 10^-9 M of LTD4 was repeatedly permitted to act on the guinea pig ileum and after the amplitude of contraction had become constant, a solution of the test drug was added to a final concentration of 10^-9 to 10^-4 M. After 1 minute, the same concentration of LTD4 was further added and the anti-SRS-A activity of the drug was calculated from the change in contraction amplitude by means of the following equation. [formula]
To obtain the IC50 value, the mole concentration of the drug showing a 50% inhibition of the contractile response was determined from plots on a graph.
The drug was used as dissolved in dimethyl sulfoxide. The solvent was used in an amount less than 1% which would not exert any influence on the ileum.

[2] = system: bronchoconstriction due to leukotriene D4 (LTD4); test: Inhibition of bronchoconstriction due to intravenous LTD4 in guinea pigs (Konzett-Rossler); type: in vivo, guinea pig (Hartley strain); settings: for % Inhibition, Experiment 1: 2 minutes before LTD4 10 μg/kg i.v.; for % Inhibition, Experiment 1 / % Inhibition, Experiment 2: 30 seconds after LTD4; for % Inhibition, Experiment 2: 30 minutes before LTD4 10 μg/kg i.v.; for minimal effective dose: Cavia porcellus, iv, dose causing statistically significant difference vs control group, significance level <5%; for inhibitory effect upon the bronchoconstriction compared with Control compound-1 (in words): LTD4, i.v.
Description: Guinea pigs of Hartley strain, both male and female, with body weights about 400 g were assigned to groups of 6 individuals, and the bronchoconstriction due to LTD4 were measured according to the method of Konzett-Rossler, [Konzett, H. and Rossler, R.: Naunyn-Schmiedebergs Archiv Fur Experimentelle Pathologie und Pharmakologie 195, 71-74 (1940)]. Each guinea pig was fixed in supine position under urethane anesthesia (1.5 g/kg, intraperitoneal) and the trachea was incised and connected to an artificial respiration apparatus, Rodent Respirator Model 680 [Harvard Apparatus Company, U.S.A.] via a cannula. The branch tube of this tracheal cannula was connected to Bronchospasm Transducer Model 7020 [Ugobasil Biological Research Apparatus, Italy]. Under the conditions of 5 to 7 ml of air per stroke, 70 strokes per minute and a lung loading pressure of 10 cmH2 O, the volume of overflowing air was recorded on Rectigraph-8S (Sanei Sokki Ltd., Japan) via a transducer. After administration of gallamine triethiodide (1 mg/kg, i.v.), 10 μ g/kg of histamine.2HCl was intravenously administered to investigate the response of the animal. Then, a solution of LTD4 in physiological saline (10 μg/kg) was intravenously administered and the bronchoconstriction elicited thereby was recorded for 15 minutes. Two minutes before LTD4 loading, compound (I)-A-1 was intravenously administered in a volume of 0.1 ml per 100 g body weight. Compound (I)-A-1 and LTD4 were administered through a cannula inserted into the jugular vein.
The compound (I)-A-1 was used as dissolved in physiological saline containing sodium hydrogen carbonate, and LTD4 was taken from a stock stored in methanol (1 mg/1 ml methanol) at -70° C.
The bronchoconstriction induced by intravenous administration of 10 μg/kg of LTD4 as given 2 minutes after the administration of physiological saline was maximal at the time of 30 seconds after the administration of LTD4 and, since then, was rapidly attenuated to about 50% at the time of 2 minutes but lasted till 15 minutes. Assuming that the response at complete obstruction is 100%, the values at 30 seconds and 15 minutes were 47.4±6.9% (n=6, Mean±S.E.) and 19.4±2.8% (Mean±S.E.), respectively (S.E.: standard error).
Then the present inventors studied the antagonistic action of the compound (I)-B against SRS-A using a synthetic LTD4 in the manner described on the compound (I)-A.
In each case, the bronchoconstriction following intravenous administration of 10 μg/kg of LTD4 at 2 or 30 minutes after the administration of physiological saline reached a maximum 30 seconds after the administration of LTD4, and then decreased to about 50% at 2 minutes after the administration of LTD4. The response continued for 15 minutes after the administration of LTD4. Repeated experiments using 6 animals per group gave mean degrees of maximum bronchoconstriction (30-second values) of 52.2-67.1% and 54.7-70.1%, respectively, as compared with the state of complete obstruction (100%). In experiment 1, the test compounds (I)-B-1, (I)-B-2 and Control compound-1 were each intravenously administered at two minutes before the administration of LTD4 and inhibitory effect on the bronchoconstriction was examined. The minimum effective doses (causing statistically significant differences as compared with the control group; significance level <5%) were 0.313, 0.313 and 5 mg/kg, respectively. The corresponding inhibition percentages were 41, 52 and 56%, respectively. In experiment 2, the test compounds were intravenously administered 30 minutes before the administration of LTD4 and the effect on the above response was examined. The minimum effective doses were 5, 5, and 20 mg/kg, respectively.
The test compounds were intravenously administered 2 minutes before the
intravenous administration of 10 μg/kg of LTD4.
The test compounds were intravenously administered 30 minutes before the
Each value was calculated from the volume (in percentage) of air […]

[3] = Acute toxicity in mice; type: in vivo, mouse (Jcl:ICR strain); settings: 500 mg/kg oral; for Autopsy findings: after 7 days; for symptoms attributable to compound after oral administration: male mice
Description: Five 5-week-old male mice of Jcl:ICR strain, weighing 26.0 to 30.5 g, were used. Compound (I)-A-1 was suspended in a 5% solution of gum arabic and administered orally by gastric gavage at the level of 0.2 ml per 10 grams body weight.
Five 5-week-old male mice of Jcl:ICR strain, weighing 26.0 to 30.5 g, were used. Compound (I)-B-1 or (I)-B-2 was suspended in a 5% solution of gum arabic and administered orally by gastric gavage at the level of 0.2 ml per 10 grams body weight.

[4] = system: antigen-induced bronchoconstriction; test: Antigen-induced bronchoconstriction in sensitized guinea pigs; type: in vivo, guinea pig (Hartley strain); settings: for % Inhibition: 2 minutes prior to antigen (EA 1 mg/kg i.v.), one minute after antigen; for minimal effective dose: Cavia porcellus, iv, 2 minutes prior to antigen administration, read-out: minimum effective dose; for inhibitory effect on the antigen-induced bronchoconstriction compared with Control compound-1 (in words): i.v., 2 minutes prior to antigen
Description: According to the method of Orange and Moore [Orange, R. P. and Moore, E. G., Journal of Immunology, 116, 392-397 (1976)], Hartley-strain male guinea pigs weighing about 350 g were sensitized by intraperitoneal administration of 1 ml of an emulsion composed of 0.5 ml of physiological saline containing 1 mg of egg alubumin (EA) and 0.5 ml of Freund's complete adjuvant (Difco, USA). Three weeks after the sensitization, the serum antibody levels in the sensitized guinea pigs were determined by the 3-hour PCA reaction in guinea pigs and those guinea pigs that gave positive results in the PCA reaction with 1,000-fold diluted serum samples therefrom were used as the sensitized aminals. Using the Konzett-Rossler method as mentioned under the above paragraph (i), the bronchoconstriction due to the antigen-antibody reaction was induced by intravenous administration of 1 mg/kg of the antigen EA instead of LTD4, and recorded.
The bronchoconstriction in the control group as induced by antigen administration 2 minutes after the intravenous administration of physiological saline reached a maximum one minute after the intravenous administration of the antigen. Gradual recovery followed and the pretreatment state was almost restored in 15 minutes after the induction. Repeated experiments using 6 animals per group gave mean degrees of maximum bronchoconstriction (one-minute values) of 72.8-83.3% as compared with the state of complete obstruction (100%). The test compounds (I)-B-1, (I)-B-2 and Control compound-1 were each intravenously administered 2 minutes prior to antigen administration and the inhibitory effect on the bronchoconstriction was examined. The minimum effective doses were 5, 5 and 20 mg/kg, respectively, and the corresponding inhibition percentages were 51, 52 and 64%, respectively.
The test compounds were intravenously administered 2 minutes prior to
intravenous administration of the antigen.
Each value was calculated from the volume (in percentage) of air
overflowing from the respiratory tract at the time when the response was
maximal, i.e. one minute after administration of the antigen.

[5] = 1.25 mg/kg i.v., **P<0.01 for (I)-B-1 and (I)-B-2
[6] = 5 mg/kg i.v., P<0.001 for (I)-B-1 and Control compound-1, P<0.01 for (I)-B-2
[7] = 5 mg/kg i.v., **P<0.01 for (I)-B-1 and (I)-B-2
[8] = 20 mg/kg i.v., P<0.001 for (I)-B-1 and (I)-B-2, P<0.01 for Control compound-1
[9] = 30 minutes before LTD4, read-out: minimum effective dose, experiment 2
[10] = two minutes before LTD4, read-out: minimum effective dose, experiment 1
[11] = 5 mg/kg i.v., p<0.001 for (I)-B-1, p<0.01 for (I)-B-2

SMILES | IC50 [1] [nM] | % Inhibition, Experiment 1 ([2]; 0.313 mg/kg i.v., *P<0.05) [%] | % Inhibition, Experiment 1 [2, 5] [%] | % Inhibition, Experiment 1 [2, 6] [%] | % Inhibition, Experiment 2 [2, 7] [%] | % Inhibition, Experiment 2 [2, 8] [%] | minimal effective dose [2, 9] [mg/kg] | minimal effective dose [2, 10] [mg/kg] | inhibitory effect upon the bronchoconstriction compared with Control compound-1 (in words) [2] | Autopsy findings [3] | symptoms attributable to compound after oral administration [3] | % Inhibition ([4]; 1.25 mg/kg i.v.) [%] | % Inhibition [4, 11] [%] | % Inhibition ([4]; 20 mg/kg i.v., ***p<0.001) [%] | minimal effective dose [4] [mg/kg] | inhibitory effect on the antigen-induced bronchoconstriction compared with Control compound-1 (in words) [4] | % Inhibition, Experiment 2 ([2]; 1.25 mg/kg i.v.) [%] | % Inhibition, Experiment 1 ([2]; 20 mg/kg i.v., ***P<0.001) [%]
CCCc1c(OCC(O)COc2ccc(-c3nn[nH]n3)cc2Br)ccc(C(C)=O)c1O (stereo not shown) [Compound (I)-A-2, 2-hydroxy-3-propyl-4-[2-hydroxy-3-[2-bromo-4-(tetrazol-5-yl)phenoxy]propoxy]acetophenone] | 19 |  |  |  |  |  |  |  |  |  |  |  |  |  |  |  |  | 
CCCc1c(OCC(O)COc2ccc(C(=O)O)cc2Cl)ccc(C(C)=O)c1O (stereo not shown) [Compound (I)-B-1, 4-[3-(4-acetyl-3-hydroxy-2-n-propylphenoxy)-2-hydroxypropoxy]-3-chlorobenzoic acid] |  | 41 | 51 | 84 | 42 | 96 | 5 | 0.313 | superior to Control compound-1 | did not reveal any abnormalities | no symptoms | 6 | 51 | 75 | 5 | superior to Control compound-1 |  | 
CCCc1c(OCCCOc2ccc(C(=O)O)cc2Cl)ccc(C(C)=O)c1O [Compound (I)-B-2, 4-[3-(4-acetyl-3-hydroxy-2-n-propylphenoxy)propoxy]-3-chlorobenzoic acid] |  | 52 | 77 | 79 | 42 | 66 | 5 | 0.313 | superior to Control compound-1 | did not reveal any abnormalities | no symptoms | 20 | 52 | 88 | 5 | superior to Control compound-1 | 10 | 

Continued, in another order:

IC50 [1] [nM] | SMILES | % Inhibition, Experiment 1 ([2]; 0.313 mg/kg i.v., *P<0.05) [%] | % Inhibition, Experiment 1 [2, 5] [%] | % Inhibition, Experiment 1 [2, 6] [%] | % Inhibition, Experiment 2 [2, 7] [%] | % Inhibition, Experiment 2 [2, 8] [%] | minimal effective dose [2, 9] [mg/kg] | minimal effective dose [2, 10] [mg/kg] | inhibitory effect upon the bronchoconstriction compared with Control compound-1 (in words) [2] | Autopsy findings [3] | symptoms attributable to compound after oral administration [3] | % Inhibition ([4]; 1.25 mg/kg i.v.) [%] | % Inhibition [4, 11] [%] | % Inhibition ([4]; 20 mg/kg i.v., ***p<0.001) [%] | minimal effective dose [4] [mg/kg] | inhibitory effect on the antigen-induced bronchoconstriction compared with Control compound-1 (in words) [4] | % Inhibition, Experiment 2 ([2]; 1.25 mg/kg i.v.) [%] | % Inhibition, Experiment 1 ([2]; 20 mg/kg i.v., ***P<0.001) [%]
70 | CCCc1c(OCCCOc2ccc(-c3nnn[nH]3)cc2Cl)ccc(C(C)=O)c1O [Compound (I)-A-3, 1-(4-acetyl-3-hydroxy-2-n-propylphenoxy)-3-[2-chloro-4-(tetrazol-5-yl)phenoxy]propane] |  |  |  |  |  |  |  |  |  |  |  |  |  |  |  |  | 
420 | CCCc1c(OCCCOc2ccc(C(=O)O)c(O)c2)ccc(C(C)=O)c1O [Control compound-1, reference compound] |  | 14 | 56 | 14 | 35 | 20 | 5 |  |  |  | 12 | 16 | 64 | 20 |  |  | 87
680 | CCCc1c(OCCCOc2cccc(-c3nn[nH]n3)c2)ccc(C(C)=O)c1O [Control compound-2, reference compound] |  |  |  |  |  |  |  |  |  |  |  |  |  |  |  |  | 
